Test results: US12109215B2, “Combination therapies for inhibition of polo-like kinase 4” (UNIVERSITY HEALTH NETWORK, priority 2017, dated 2024)

Columns and labels:
CT26 tumor = experiment: Established CT26 tumor treatment in BALB/cJ mice (tumor volume, regression); format: in vivo
Experimental: (§1) BALB/cJ mice were inoculated subcutaneously with 1×10^6 CT26 cells, and C57BL/6 mice were inoculated subcutaneously with 0.5×10^6 MC38 cells. The mice were then randomized. Animal weights were monitored daily, and tumor volume was measured three times per week.
(§2) […] was defined as 100×[1−TVf,treated−TVi,treated)/(TVf,control−TVi,control)], where TVf is the average tumor volume at the end of study and TVi is the average tumor volume at the end initiation of treatment. In cases in which tumor regression occurred, percentage of tumor regression was defined as 100×[1−(TVf,treated/TVi,treated)]. At the completion of each study, the mice were killed by an anesthetic overdose, and tumor tissue was removed for further analysis.
(§3) Treatments were initiated when tumor volumes reached an average size of ˜60 mm^3. To treat an established CT26 or MC38 tumor, the animals were first assigned into groups, i.e., the control group receiving rat IgG2a isotype control, the group receiving the compound CFI-400945 monotherapy, the group receiving the rat IgG2a anti-PD-1 antibody monotherapy and the group receiving the combination therapy.
The compound CFI-400945 and the vehicle (water) were administered by oral gavage (PO), at one of the following dosages: (i) 6.5 mg/kg once daily (QD) for 21 days; (ii) 13 mg/kg twice a week (BIW or 2 on/5 off) for 21 days; (iii) 52 mg/kg once weekly (QW) for 21 days; and (iv) 104 mg/kg in two doses, i.e., on Days 0 and 14.
(§4) The anti-PD-1 antibody or the isotype control were administered by intraperitoneal (IP) injection. 150 μg anti-PD-1 antibody was administered in four doses, i.e., on Days 0, 3, 6 and 10.

MC38 tumor = experiment: Established MC38 tumor treatment in C57BL/6 mice (tumor volume, regression); format: in vivo; settings: first batch of MC38 experiments; CFI-400945 6.5 mg/kg once daily for 21 days, alone (FIG. 2C) or with anti-PD-1 antibody 150 μg Days 0, 3, 6, 10 (FIG. 2D)
Experimental: as §1, §2
as §3, with “therapy. […]” for “therapy.”

CT26 cells = experiment: Re-challenge by inoculation with CT26 cells on Day 36 of animals with complete regression; format: in vivo, BALB/cJ mice
Experimental: Further to the tumor volume measurements, the animals in which complete regression had occurred as described above, either by CFI-400945 monotherapy or by IgG2a anti-PD-1 antibody-CFI-400945 combination therapy, were re-challenged by inoculation with CT26 cells on Day 36, as shown in FIGS. 1D (6.5 mg/kg QD CFI-400945+anti-PD-1 antibody), 1E (13 mg/kg BIW CFI-400945), 1F (13 mg/kg BIW CFI-400945+anti-PD-1 antibody), 1G (52 mg/kg QW CFI-400945), 1H (52 mg/kg QW CFI-400945+anti-PD-1 antibody) and 1J (104 mg/kg CFI-400945 on Days 0 and 14+anti-PD-1 antibody).

[1] = Tolerability in the CT26 tumor study (body weight, animal death); format: in vivo
Experimental: as §1, §4

[2] = CFI-400945 104 mg/kg PO on Days 0 and 14

Compound: COc1ccc2c(c1)[C@]1(C[C@H]1c1ccc3c(/C=C/c4ccc(CN5C[C@@H](C)O[C@@H](C)C5)cc4)n[nH]c3c1)C(=O)N2 [CFI-400945]
- complete regression of CT26 tumors (CT26 tumor; CFI-400945 6.5 mg/kg PO once daily for 21 days, alone (FIG. 1C) or with anti-PD-1 antibody 150 μg IP Days 0, 3, 6, 10 (FIG. 1D)): no instances in which complete regression was observed
- CT26 tumor growth (CT26 tumor; CFI-400945 6.5 mg/kg PO once daily for 21 days, single agent (FIG. 1C)): tumor growth delay
- CT26 tumors with regression (CT26 tumor; CFI-400945 13 mg/kg PO twice a week for 21 days, alone (FIG. 1E) or with anti-PD-1 antibody 150 μg IP Days 0, 3, 6, 10 (FIG. 1F)): one of the eight
- CT26 tumors with regression (CT26 tumor; CFI-400945 52 mg/kg PO once weekly for 21 days, alone (FIG. 1G) or with anti-PD-1 antibody 150 μg IP Days 0, 3, 6, 10 (FIG. 1H)): one of the eight
- regression of MC38 tumors (MC38 tumor): Regression was also observed
- tumor growth after re-challenge with CT26 cells on Day 36 (CT26 cells; animals with complete regression after CFI-400945 13 mg/kg BIW, alone (FIG. 1E) or + anti-PD-1 antibody (FIG. 1F)): tumors did not grow in any mouse
- tumor growth after re-challenge with CT26 cells on Day 36 (CT26 cells; animals with complete regression after CFI-400945 52 mg/kg QW, alone (FIG. 1G) or + anti-PD-1 antibody (FIG. 1H)): tumors did not grow in any mouse
- tolerability of dosage ([1]; CFI-400945 6.5 mg/kg PO daily for 21 days): well-tolerated
- body weight loss or animal death ([1]; CFI-400945 6.5 mg/kg PO daily for 21 days, data not shown): lack of any significant body weight loss (data not shown) or any animal death
- tolerability of dosage ([1]; CFI-400945 13 mg/kg PO twice a week for 21 days): well-tolerated
- tolerability of dosage ([1]; CFI-400945 52 mg/kg PO once weekly for 21 days): well-tolerated
- animals found dead [1, 2]: two
- tolerability of dosage [1, 2]: not be well-tolerated
